Experiment [1] has as its target T1, human EP3 receptor (Homo sapiens, UniProt P43115).
T1 construct: expressed in transfected cells
T1 sequence (P43115 1-390): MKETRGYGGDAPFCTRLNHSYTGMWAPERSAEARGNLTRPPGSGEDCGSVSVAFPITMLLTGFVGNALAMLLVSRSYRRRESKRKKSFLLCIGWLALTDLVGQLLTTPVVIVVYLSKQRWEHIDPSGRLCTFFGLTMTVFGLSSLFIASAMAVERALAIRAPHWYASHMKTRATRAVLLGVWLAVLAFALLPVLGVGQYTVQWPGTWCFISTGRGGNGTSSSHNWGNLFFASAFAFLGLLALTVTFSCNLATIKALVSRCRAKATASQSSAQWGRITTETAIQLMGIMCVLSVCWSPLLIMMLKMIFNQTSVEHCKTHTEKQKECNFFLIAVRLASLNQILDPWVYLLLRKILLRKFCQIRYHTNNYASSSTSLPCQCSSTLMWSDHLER
Nature of the experiment: Binding ability to human EP receptors ([3H]PGE2 displacement), EP3. The following applies: membranes expressing human EP3; [3H]PGE2 2.5 nM; Cheng-Prusoff; read-out: pKi (M) EP3 (converted). The method in brief:
(§1)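 Membranes from cells stably expressing human EP2, EP3 or EP4 incubated to equilibrium with [3H]PGE2 and compound at 0.1 to 10 000 nM. Non-specific binding defined with 10 uM PGE2; bound label separated by vacuum filtration and quantified by scintillation counting.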

The target of experiment [2] is T2, human EP4 prostanoid receptors (Homo sapiens, UniProt P35408).
T2 construct: expressed in transfected cells; host or cells: HEK-293
T2 sequence (P35408 whole entry): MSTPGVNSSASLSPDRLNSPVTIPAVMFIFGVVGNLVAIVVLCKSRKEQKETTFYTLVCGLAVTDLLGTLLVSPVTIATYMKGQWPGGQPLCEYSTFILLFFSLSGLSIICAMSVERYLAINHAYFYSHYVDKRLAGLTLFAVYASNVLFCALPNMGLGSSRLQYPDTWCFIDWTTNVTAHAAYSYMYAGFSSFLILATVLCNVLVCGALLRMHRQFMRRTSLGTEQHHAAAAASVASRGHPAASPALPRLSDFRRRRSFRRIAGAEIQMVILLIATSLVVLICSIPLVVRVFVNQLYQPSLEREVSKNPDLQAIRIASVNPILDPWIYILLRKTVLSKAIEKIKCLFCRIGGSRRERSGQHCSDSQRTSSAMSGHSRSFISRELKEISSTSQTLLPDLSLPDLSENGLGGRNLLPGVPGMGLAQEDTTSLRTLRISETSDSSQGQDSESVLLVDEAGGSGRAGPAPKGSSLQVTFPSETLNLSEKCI
Nature of the experiment: Antagonist activity at EP4 prostanoid receptors (PGE2-stimulated cAMP in HEK-293 clones). The experiment is classed as cell-based. The following applies: for Kb: HEK-293 stably transfected with human EP4, 30 min pre-incubation before PGE2, Gaddum-Schild, slope of unity, read-out: pA2 EP4 (converted). The procedure: Culture media was Minimal essential media (MEM), supplemented with 10% foetal bovine serum, 100 U/ml penicillin, […] streptomycin, 2.5 μg/ml fungizone, 2mM glutamine. Cells were cultured to confluency (3-4 days) prior to use. Culture media was removed, and confluent cells washed three times in MEM. […] Cells were then stimulated by the addition of 25 μl of PGE2 or agonists prepared in assay buffer. In antagonist studies, cells were pre-incubated with compounds for 30 minutes prior to PGE2-mediated stimulation Plates were incubated for 15 min at 37° C., before termination of the reaction by the addition of 25 μl 1M HCl. The plate was then frozen at -20° C. overnight before determination of cAMP concentration. Stimulated cAMP levels were determined by radioligand displacement binding. In brief, plates were thawed rapidly in a waterbath, and the samples neutralised by the addition of 25 μl 1M NaOH. 30 μl was transferred to Millipore plates pre-coated with 0.5% Polyethylenimine (PEI). Samples were diluted by addition of 90 μl cAMP determination buffer (50 mM Tris, 5 mM EDTA, pH 7.0). […] 15 μl of 2 nM (final concentration) [^3H] cAMP, and 15 μl of 3'5'-cAMP protein kinase (8 μg/well final concentration) prepared in cAMP determination buffer containing 0.1% BSA, were added to each well. Plates were incubated on ice for 2 hours, before bound and free radiolabel were separated by vacuum filtration harvesting using the Millipore vacuum manifold, using ice cold water as the termination buffer. The sealing mat was removed from the Millipore plates, and the filters allowed to dry overnight. 50 μl Microscint 0 (Packard Bioscience) was added to each well, and the plate counted using the Micro-Beta Trilux topcount ^3H program. cAMP accumulation was determined from the standard curve, and values calculated in pmoles cAMP/well. Antagonists affinities (pA2 values) were determined assuming a slope of unity and the […]-Schild equation, where pA2=log [concentration ratio-1]-log[antagonist].

For experiment [3], the target named is T3, human EP2 receptor (Homo sapiens, UniProt P43116).
T3 construct: expressed in transfected cells
T3 sequence (P43116 whole entry): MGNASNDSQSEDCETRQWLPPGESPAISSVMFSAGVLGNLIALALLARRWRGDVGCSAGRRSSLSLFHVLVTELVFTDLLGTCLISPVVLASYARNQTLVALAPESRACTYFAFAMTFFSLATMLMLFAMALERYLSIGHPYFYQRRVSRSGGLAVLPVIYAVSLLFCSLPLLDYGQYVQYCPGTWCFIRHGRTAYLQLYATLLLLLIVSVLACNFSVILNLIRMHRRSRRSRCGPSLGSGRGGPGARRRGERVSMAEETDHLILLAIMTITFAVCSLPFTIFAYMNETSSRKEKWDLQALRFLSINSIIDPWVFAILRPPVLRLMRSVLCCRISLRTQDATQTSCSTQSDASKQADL
Nature of the experiment: Binding ability to human EP receptors ([3H]PGE2 displacement), EP2. The following applies: membranes expressing human EP2; [3H]PGE2 3 nM; Cheng-Prusoff; read-out: pKi (M) EP2 (converted). In a few lines:
as §1

Experiment [4] addresses T4, human EP2 prostanoid receptors (Homo sapiens, UniProt P43116).
T4 construct: expressed in transfected cells; host or cells: HEK-293
Description: Agonist activity at recombinant human EP2 prostanoid receptors (cAMP in HEK-293 clones). The experiment is classed as cell-based. The following applies: for EC50: HEK-293 stably transfected with human EP2, cAMP accumulation, read-out: pEC50 EP2 (converted); for activity (EP2 part): functional classification at EP2. On the technique in general: Cyclic AMP is a second messenger, typically raised through Gs and lowered through Gi signalling.

Experiment [5] has as its target T5, human EP4 receptor (Homo sapiens, UniProt P35408).
T5 construct: expressed in transfected cells
Description: Binding ability to human EP receptors ([3H]PGE2 displacement), EP4. The following applies: membranes expressing human EP4; [3H]PGE2 1 nM; Cheng-Prusoff; read-out: pKi (M) EP4 (converted). The method in brief: as §1

T4 sequence (P43116 whole entry): as above
T5 sequence (P35408 whole entry): as the sequence (P35408 whole entry) above

For the molecule `O=C(O)/C=C/c1cccc(NC(=O)c2cc(-c3cc(Cl)cc(Cl)c3)ccc2F)c1` [Compound 144, 3-{3-[(3′,5′-Dichloro-4-fluoro-biphenyl-3-carbonyl)-amino]-phenyl}-acrylic acid], the Ki was > 1e-05 M in experiment [1], < 1e-07 M in experiment [3] and < 1e-06 M in experiment [5]. In addition, the Kb in experiment [2] is < 1 µM. Further, the EC50 in experiment [4] is < 0.1 µM. Further, in experiment [4], the “activity (EP2 part)” value is recorded as “EP2 Agonist”.
As for `O=C(O)/C=C/c1cccc(NC(=O)c2cccc(-c3ccccc3)n2)c1` [Compound 178, 3-{3-[(6-Phenyl-pyridine-2-carbonyl)-amino]-phenyl}-acrylic acid], the results for the Ki in experiment [1], in experiment [3] and in experiment [5] were > 1e-05 M, < 1e-07 M and < 1e-07 M, respectively. Further, the Kb in experiment [2] is < 1 µM. In addition, the “activity (EP4 part)” value in experiment [2] (functional classification at EP4, second line of the activity cell) was “EP4 Agonist”. In addition, the EC50 in experiment [4] is < 0.1 µM. In addition, the “activity (EP2 part)” value in experiment [4] was “EP2 Agonist/”.
